Source: patent US10000438B2, “Small molecule inhibitors of TRPA1” (B.R.A.I.N. Biotechnology Research and Information Network AG, priority 2011, dated 2018)
Like-named read-outs stand apart in the source and are kept apart here.

Tests used:
TRPA1 [1] = target: T1, TRPA1 (Homo sapiens, UniProt O75762); assay: Cell-based calcium assay (Fluo-4 fluorescence) in HEK293 cells expressing recombinant human TRPA1; parameters: expressed in transfected cells
Method: The HEK293 cell line expressing recombinant human TRPA1 under the control of a tetracycline-regulated promoter was used in this assay (cf. example 2). Functional modulation of TRPA1 by the tested compounds was measured and quantified using the calcium sensitive fluorescent probe […] on a fluorescence microplate reader. Activation of TRPA1 by an agonist led to an increase in the intracellular calcium concentration and thus an increase in fluorescence intensity.
Procedure: Cells were cultured in DMEM (high glucose) supplemented with tetracycline-free FCS (10% v/v), L-glutamine (4 mM), blasticidin (15 μg/ml) and hygromycin (100 μg/mL) in a water-saturated atmosphere at 37° C. and 5% CO2. Cells were seeded onto 96-well clear-bottom black-walled assay plates at a density of 70,000 cells per well in 100 μl of cell culture medium. Expression of the ion channel was induced or not induced by addition of tetracycline (1 μg/ml final concentration) to the cell culture medium (while seeding the cells). Calcium influx into the living cells due to channel activation was monitored 24 h later using the calcium sensitive fluorescent probe […] on a fluorescence microplate reader (FlexStation® system, Molecular Devices). Therefore 100 μl Krebs-HEPES (KH) buffer (118 mM NaCl; 4.7 mM KCl; 1.3 mM CaCl2; 1.2 mM MgSO4; 1.2 mM KH2PO4; 4.2 mM NaHCO3; 10 mM Hepes, pH 7.4) supplemented with sulfinpyrazone (250 μM) and […] (4 μM) were added and the cells were incubated for an additional hour in a water-saturated atmosphere at 37° C. and 5% CO2.
Measurement of agonistic activity: Medium was replaced with 200 μl KH buffer supplemented with sulfinpyrazone (250 μM). Subsequently, 50 μl KH buffer supplemented with the agonists or control substances were added. Changes in fluorescence were recorded at 20-26° C.
Measurement of antagonistic activity (screening): Medium was replaced with 150 μl KH buffer supplemented with sulfinpyrazone (250 μM). Subsequently, 50 μl KH buffer supplemented with the screening compounds (50 μM; leading to a final concentration of 10 μM under measurement conditions) or control substances were added and the cells were incubated for 10 min. under assay conditions in the microplate reader. Changes in fluorescence were recorded at 20-26° C. after addition of 50 μl KH buffer supplemented with the TRPA1 agonist menthol (175 μM; leading to a final concentration of 35 μM under measurement conditions). The published TRPA1 antagonist AP-18 (Petrus, 2007) was used as a control for TRPA1-specific […] activity. Subsequently, the inventive compounds were tested for their capacity to reduce signals triggered by addition of propylparaben (EC80=80 μM), retinol (EC80=150 μM), and allyl isothiocyanate (EC80=5 μM) (cf. Table 2).
Analysis: Calcium mobilization was quantified as the change of peak fluorescence (ΔF) over the baseline level (F). The data was analyzed with the software of the microplate reader. Potential TRPA1 antagonists were tested in an effective range of 0.1-50 μM for their capacity to reduce the menthol-evoked signal.

TRPA1 [2] = target: T1, TRPA1; assay: Blinded in vivo study on the lid-cheek junction, stinging/burning induced by flufenamic acid; parameters: from tissue; host or cells: facial skin (lid-cheek junction) of human volunteers; conditions: compound 0.05% pre-incubated on one side of face, placebo on other; flufenamic acid 0.75%; 16 persons, two felt no stimulus
Method: Antagonistic in vivo activity at TRPA1 was tested in a blinded study on the lid-cheek junction of 16 test persons. The ion channel was stimulated using a known TRPA1 agonist: flufenamic acid, a member of the group of NSAIDs (non-steroidal anti-inflammatory drugs) (Hu et al., 2010). The concentration of flufenamic acid was adjusted to a level that induced a pronounced stinging/burning sensation in the majority of the testers (0.75%).
Procedure: One side of the face (the lid-cheek junction) was pre-incubated with the antagonist (compound I.3, 0.05%)—the other side with placebo. Afterwards, flufenamic acid was applied to both sides simultaneously. Testers were asked several questions regarding their individual perception of irritation.
Analysis: Testers were asked if they could feel the NSAID-triggered stinging/burning. The strength of the stimulus was not judged. Then they were asked if they could perceive a difference between the two areas. If the answer was yes, they were asked which side was perceived as more pleasant. The antagonistic effect was graded in three categories: no reduction, reduction and strong reduction of the irritation. 10 out of 14 testers perceived a soothing effect by the use of the antagonist (two individuals felt no stimulus at all).

human TRPM8 = target: T2, human TRPM8 (Homo sapiens, UniProt Q7Z2W7); assay: Test for cross-selectivity on TRPM8: calcium assay in HEK293 cells expressing recombinant human TRPM8; format: cell-based
T2 construct: expressed in transfected cells; host or cells: HEK293 (tetracycline-regulated promoter)
T2 sequence (Q7Z2W7 whole entry): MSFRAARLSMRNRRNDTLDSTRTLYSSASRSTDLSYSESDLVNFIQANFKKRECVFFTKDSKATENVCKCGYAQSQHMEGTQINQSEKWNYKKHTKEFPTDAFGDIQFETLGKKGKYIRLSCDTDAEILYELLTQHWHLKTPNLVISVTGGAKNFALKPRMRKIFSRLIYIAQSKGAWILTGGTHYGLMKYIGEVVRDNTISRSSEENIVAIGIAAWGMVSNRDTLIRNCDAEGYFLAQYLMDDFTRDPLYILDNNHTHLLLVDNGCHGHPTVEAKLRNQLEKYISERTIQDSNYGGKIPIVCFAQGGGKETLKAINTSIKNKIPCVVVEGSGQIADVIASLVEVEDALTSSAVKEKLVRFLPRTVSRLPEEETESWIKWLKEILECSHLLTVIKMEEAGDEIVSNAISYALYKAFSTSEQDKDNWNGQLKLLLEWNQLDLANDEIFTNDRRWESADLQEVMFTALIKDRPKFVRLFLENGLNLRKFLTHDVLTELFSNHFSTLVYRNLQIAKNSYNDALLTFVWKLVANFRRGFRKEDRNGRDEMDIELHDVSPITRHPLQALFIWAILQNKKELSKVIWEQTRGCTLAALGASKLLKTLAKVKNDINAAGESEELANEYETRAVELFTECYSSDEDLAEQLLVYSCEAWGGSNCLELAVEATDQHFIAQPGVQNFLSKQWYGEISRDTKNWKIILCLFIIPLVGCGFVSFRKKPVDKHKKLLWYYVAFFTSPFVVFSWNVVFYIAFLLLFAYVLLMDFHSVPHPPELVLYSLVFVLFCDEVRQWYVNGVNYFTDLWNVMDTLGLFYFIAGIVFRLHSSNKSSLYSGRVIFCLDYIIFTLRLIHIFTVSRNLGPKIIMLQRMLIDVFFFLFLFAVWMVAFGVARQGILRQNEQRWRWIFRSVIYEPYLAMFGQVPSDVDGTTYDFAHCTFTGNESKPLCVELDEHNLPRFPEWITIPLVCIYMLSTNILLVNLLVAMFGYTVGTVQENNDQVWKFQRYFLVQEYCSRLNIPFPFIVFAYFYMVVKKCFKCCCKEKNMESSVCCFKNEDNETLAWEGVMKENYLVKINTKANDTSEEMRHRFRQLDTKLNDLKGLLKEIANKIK
Method: The test for cross-selectivity of the compounds on TRPM8 was performed in much the same way as the initial screening on TRPA1 (described in example 3). A HEK293 cell line expressing recombinant human TRPM8 under the control of a tetracycline-regulated promoter was used. Cells were cultured under the conditions mentioned in example 3. Functional modulation of TRPM8 was measured and quantified using the calcium sensitive fluorescent probe Fluo-4 AM on a fluorescence microplate reader. The assay was performed as described in example 3. Changes in fluorescence were recorded at 26-30° C. after addition of the compounds and/or the TRPM8 agonist menthol (EC80=12 μM). Dose-response curves are shown in FIGS. 5 to 9 (calcium assay) against menthol, which is known to trigger both TRPA1 as well as TRPM8. In particular, the antagonistic activity of compound I.3, II.3, III.3, IV.3 and V.3 at TRPA1 (open circles, continuous line) as well as the antagonistic activity of said compounds at TRPM8 (filled squares, dotted line) was measured and compared. Activation of the two ion channels was triggered by addition of menthol (EC80[TRPA1]=35 μM and EC80[TRPM8]=12 μM). The receptor signals were normalized to the pure menthol signal in each case.

TRPA1 [3] = target: T1, TRPA1; assay: Cell-based (label-free) impedance assay in HaCaT cells
[4] = agonist allyl isothiocyanate at EC80 (5 μM), read-out: Antagonistic activity (IC50) against Allyl isothiocyanate
[5] = agonist menthol at EC80 (35 μM final), read-out: Antagonistic activity (IC50) against Menthol
[6] = agonist propylparaben at EC80 (80 μM), read-out: Antagonistic activity (IC50) against Propylparaben
[7] = agonist retinol at EC80 (150 μM), read-out: Antagonistic activity (IC50) against Retinol

T1 sequence (O75762 whole entry): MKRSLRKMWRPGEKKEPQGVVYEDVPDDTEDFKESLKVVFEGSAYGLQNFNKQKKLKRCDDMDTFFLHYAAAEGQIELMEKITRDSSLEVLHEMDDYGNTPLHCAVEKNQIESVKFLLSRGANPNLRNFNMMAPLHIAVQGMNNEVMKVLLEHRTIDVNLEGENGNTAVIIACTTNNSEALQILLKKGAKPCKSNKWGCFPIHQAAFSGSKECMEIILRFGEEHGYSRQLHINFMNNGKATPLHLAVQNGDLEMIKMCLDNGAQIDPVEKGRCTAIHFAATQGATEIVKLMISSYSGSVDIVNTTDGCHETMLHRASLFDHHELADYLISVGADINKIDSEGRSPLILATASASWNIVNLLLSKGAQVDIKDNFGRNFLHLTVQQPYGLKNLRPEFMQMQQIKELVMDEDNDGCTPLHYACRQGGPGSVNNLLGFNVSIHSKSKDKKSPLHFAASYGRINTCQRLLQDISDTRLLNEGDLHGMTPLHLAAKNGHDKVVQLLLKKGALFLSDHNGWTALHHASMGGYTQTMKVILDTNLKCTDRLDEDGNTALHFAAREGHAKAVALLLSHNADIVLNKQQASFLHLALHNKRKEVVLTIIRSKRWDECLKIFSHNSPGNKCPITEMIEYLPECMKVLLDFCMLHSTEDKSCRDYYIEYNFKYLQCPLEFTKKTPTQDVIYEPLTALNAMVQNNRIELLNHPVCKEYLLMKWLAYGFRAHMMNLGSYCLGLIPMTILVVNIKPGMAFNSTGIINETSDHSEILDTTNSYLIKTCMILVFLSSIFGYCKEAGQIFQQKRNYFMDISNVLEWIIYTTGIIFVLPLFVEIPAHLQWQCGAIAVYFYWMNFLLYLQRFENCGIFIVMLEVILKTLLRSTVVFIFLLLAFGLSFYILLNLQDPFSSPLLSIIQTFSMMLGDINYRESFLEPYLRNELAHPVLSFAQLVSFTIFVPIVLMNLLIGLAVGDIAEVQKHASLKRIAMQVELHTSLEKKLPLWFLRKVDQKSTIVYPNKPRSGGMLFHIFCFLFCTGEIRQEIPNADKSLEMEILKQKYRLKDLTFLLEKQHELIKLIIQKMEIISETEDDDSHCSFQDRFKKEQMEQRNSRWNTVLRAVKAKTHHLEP

Row | IC50 (TRPA1 [1]; [4]) [µM] | IC50 (TRPA1 [1]; [5]) [µM] | IC50 (TRPA1 [1]; [6]) [µM] | IC50 (TRPA1 [1]; [7]) [µM] | Testers who perceived a soothing effect by the use of the antagonist (TRPA1 [2]) | Agonistic efficacy at TRPA1 (EC80) (TRPA1 [3]) [µM] | SMILES | Agonistic efficacy at TRPA1 (EC80) (TRPA1 [1]) [µM] | Agonistic efficacy at TRPM8 (EC80) (human TRPM8) [µM]
1 | 3.5 | 0.3 | 4.3 | 3.3 |  |  | Cc1cc(/C=C2\C(=N)N3N=C(CC(=O)N4CCCC4)SC3=NC2=O)c(C)n1-c1cccc(Cl)c1 [Compound IV.3] |  | 
2 | 26 | 4.5 | 26 | 14 |  |  | CC(C)c1ccc2c(c1)CCC1[C@](C)(C(=O)O)CCC[C@]21C (some centres unmarked) [Compound V.3] |  | 
3 |  |  |  |  |  | 200 | CCCOC(=O)c1ccc(O)cc1 [propylparaben, reference compound] | 80 | 

More lines, now with the values behind:

Row | SMILES | IC50 (TRPA1 [1]; [4]) [µM] | IC50 (TRPA1 [1]; [5]) [µM] | IC50 (TRPA1 [1]; [6]) [µM] | IC50 (TRPA1 [1]; [7]) [µM] | Testers who perceived a soothing effect by the use of the antagonist (TRPA1 [2]) | Agonistic efficacy at TRPA1 (EC80) (TRPA1 [3]) [µM] | Agonistic efficacy at TRPA1 (EC80) (TRPA1 [1]) [µM] | Agonistic efficacy at TRPM8 (EC80) (human TRPM8) [µM]
4 | COc1cc(C(=O)OC2CC3CCC2(C)C3(C)C)ccc1OC(C)=O (centres unmarked) [Compound I.3] | 2.5 | 3.5 | 4.7 | 3.4 | 10 out of 14 |  |  | 
5 | COC(=O)c1ccc(/C=C(\C#N)C(=O)Nc2ccccc2F)cc1 [Compound III.3] | 1.2 | 0.1 | 0.4 | 0.4 |  |  |  | 
6 | C=CCN=C=S [allyl isothiocyanate, reference compound] |  |  |  |  |  |  | 5 | 
7 | CC1CCC(C(C)C)C(O)C1 (centres unmarked) [menthol, 2-isopropyl-5-methyl-cyclohexanol, reference compound] |  |  |  |  |  |  | 35 | 12
8 | CC1=C(/C=C/C(C)=C/C=C/C(C)=C/CO)C(C)(C)CCC1 [retinol, reference compound] |  |  |  |  |  |  | 150 | 
